This data set is described as follows: Solubility evaluation of drugs (buffer solutions, 37° C., HPLC). Particulars: for solubility in words: acidic / neutral solvents, conclusion from Table 1; for solubility at 3 h: thermodynamic from solid. Format: physicochemical. The protocol:
A solvent was added to a drug, and ultrasonic irradiation treatment was performed on the resulting solution. The solution was agitated for 3 hours at 37° C. After 3 hours, the sample was filtered with a 0.45 μm filter, and the concentration of the drug in the filtrate was measured by a HPLC method. The solvents used were 100 mM of a citrate buffer solution (pH 4), 100 mM of a phosphate buffer (pH 7) and 100 mM of carbonic acid buffer solution (pH 9).

Where [1] appears, read: aqueous buffer, 100 mM citrate buffer solution (pH 4), 37° C., 3 hours, read-out: Solubility pH 4.
The mark [2] stands for this setting: aqueous buffer, 100 mM phosphate buffer (pH 7), 37° C., 3 hours, read-out: Solubility pH 7.

The structures appear in SMILES notation. Values after ≈ are worked out from the molar mass of the structure shown. Like-named read-outs stand apart in the source and are kept apart here. A value given as a limit tells only on which side of the number the result lay.

Broadly, the solubility is the dissolved amount per volume that the medium holds. Regarding `CCCCCCO[C@@H](C)c1cccc(-c2csc(NC(=O)c3cc(Cl)c(/C=C(\C)C(=O)O)c(Cl)c3)n2)c1OC` [Compound C-3B, (S)-(E)-3-(2,6-dichloro-4-{4-[3-(1-hexyloxyethyl)-2-methyloxyphenyl]thiazole 2-ylcarbamoyl}phenyl)-2-methylacrylic acid], the solubility in words result was “poorly soluble in an acidic and a neutral solvents”. The solubility at 3 h (aqueous buffer, 100 mM carbonic acid buffer solution (pH 9), 37° C., 3 hours, read-out: Solubility pH 9) worked out at 7.7 µg/mL (≈ 13 µM). The solubility at 3 h under setting [1] was at most 0.0004 µg/mL. Further, under setting [2], the solubility at 3 h was at most 0.0004 µg/mL. Moreover, the solubility at 3 h (buffer solution, 37 °C, pH 7, aqueous buffer, solvent with a pH of 7 or less, read-out: solubility in a solvent with a pH of 7 or less) is at most 0.0004 µg/mL.
Take `COc1ccc2c(c1)c(CC(=O)O)c(C)n2C(=O)c1ccc(Cl)cc1` [Indomethacin, indomethacin, reference compound]: the solubility in words entry was “poorly soluble in an acidic solvent”. Besides, under setting [1], the solubility at 3 h worked out at 0.5 µg/mL (≈ 1.4 µM). The solubility at 3 h under setting [2] was determined as 25 µg/mL (≈ 69.9 µM).

(Values after patent publication US9427402B2, “Preparation for improving solubility of poorly soluble drug” (Shionogi & Co. Ltd., priority 2010, dated 2016).)
